We go through two compounds from US7041684B2, “Selective β3 adrenergic agonists” (Eli Lilly and Company, priority 1996, dated 2006).

Counter-ions that a name gives are not always drawn.

Take `CC(C)(CNC(=O)c1ccc(Oc2ccc(C#N)cc2)cc1)NC[C@H](O)COc1cccc2[nH]c3ccccc3c12` (as salt: HCl): the melting point is 120 to 130 °C (dec.).
As for `CCOC(=O)COc1ccc(OCCNC[C@H](O)COc2cccc3[nH]c4ccccc4c23)cc1` (as salt: HCl), the figure is 57 to 61 °C (dec.).

By melting point is commonly meant the temperature of the solid-liquid transition.
